Data from patent US20150352108A1, “AMINO-PYRIMIDINE COMPOUNDS AS INHIBITORS OF TBK1 AND/OR IKK EPSILON” (Alzheimer's Institute of America, priority 2009, published 2015).
Where two headings read alike, the source gives them in different places.

Tests used:
[1] = system: IKKε-mediated phosphorylation of IRF3; test: In-situ phosphorylation of IRF3 (pIRF3 Ser396 ELISA) in HEK293T cells cotransfected with IRF3 and IKKε; format: cell-based; details: Homo sapiens, HEK-293T
Method in brief: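 Cells for the IRF7 Western blots carried IRF7 and TBK1 plasmids, were seeded at 150,000/well, exposed to compound overnight and probed for pSer477/Ser479 IRF7. The ELISA readout used IRF3 + IKKε-cotransfected HEK293T at 20,000/well with 20 h treatment, quantifying pSer396 IRF3 relative to DMSO, plus a parallel CellTiter-Glo viability check.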

IKKε = biological target: T1, IKKε (Homo sapiens, UniProt Q14164); test: In-vitro IKKε kinase assay ([γ33]ATP filter-plate); format: biochemical
T1 construct: His-tag; made in house; host or cells: Sf9 insect cells
T1 sequence (Q14164 1-716): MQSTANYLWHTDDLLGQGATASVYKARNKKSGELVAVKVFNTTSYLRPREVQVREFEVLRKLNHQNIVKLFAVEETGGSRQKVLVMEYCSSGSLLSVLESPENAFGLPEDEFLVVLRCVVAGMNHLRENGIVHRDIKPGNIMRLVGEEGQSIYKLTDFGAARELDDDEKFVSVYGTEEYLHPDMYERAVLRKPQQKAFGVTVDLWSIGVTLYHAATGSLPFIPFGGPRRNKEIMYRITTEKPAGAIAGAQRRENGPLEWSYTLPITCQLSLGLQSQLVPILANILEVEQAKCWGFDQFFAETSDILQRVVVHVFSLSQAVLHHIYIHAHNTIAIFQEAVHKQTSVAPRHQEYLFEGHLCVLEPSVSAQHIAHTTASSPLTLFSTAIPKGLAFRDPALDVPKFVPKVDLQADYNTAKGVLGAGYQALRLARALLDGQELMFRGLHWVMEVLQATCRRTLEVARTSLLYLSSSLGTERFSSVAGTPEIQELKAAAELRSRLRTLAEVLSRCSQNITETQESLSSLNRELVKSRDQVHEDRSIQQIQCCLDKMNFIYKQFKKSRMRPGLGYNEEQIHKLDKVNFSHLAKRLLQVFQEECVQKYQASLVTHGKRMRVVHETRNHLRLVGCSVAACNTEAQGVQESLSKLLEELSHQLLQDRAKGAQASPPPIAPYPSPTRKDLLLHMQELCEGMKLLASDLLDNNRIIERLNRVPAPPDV
Method in brief: (§1)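 His-tagged Sf9-expressed kinases at 0.1 or 0.02 μg/ml (TBK1) and 0.1 or 0.015 μg/ml (IKKε) for normal and sensitized formats, with myelin basic protein or casein substrate. ATP was at 2×Km (60 μM TBK1, 32 μM IKKε) plus 0.3 μCi [γ33]ATP. Reactions ran 30-45 min, were captured on P-81 filters, and counts were normalized to DMSO.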

TBK1 = biological target: T2, TBK1 (Homo sapiens, UniProt Q9UHD2); test: In-vitro TBK1 kinase assay ([γ33]ATP filter-plate); format: biochemical
T2 construct: His-tag; made in house; host or cells: Sf9 insect cells
T2 sequence (Q9UHD2 1-729): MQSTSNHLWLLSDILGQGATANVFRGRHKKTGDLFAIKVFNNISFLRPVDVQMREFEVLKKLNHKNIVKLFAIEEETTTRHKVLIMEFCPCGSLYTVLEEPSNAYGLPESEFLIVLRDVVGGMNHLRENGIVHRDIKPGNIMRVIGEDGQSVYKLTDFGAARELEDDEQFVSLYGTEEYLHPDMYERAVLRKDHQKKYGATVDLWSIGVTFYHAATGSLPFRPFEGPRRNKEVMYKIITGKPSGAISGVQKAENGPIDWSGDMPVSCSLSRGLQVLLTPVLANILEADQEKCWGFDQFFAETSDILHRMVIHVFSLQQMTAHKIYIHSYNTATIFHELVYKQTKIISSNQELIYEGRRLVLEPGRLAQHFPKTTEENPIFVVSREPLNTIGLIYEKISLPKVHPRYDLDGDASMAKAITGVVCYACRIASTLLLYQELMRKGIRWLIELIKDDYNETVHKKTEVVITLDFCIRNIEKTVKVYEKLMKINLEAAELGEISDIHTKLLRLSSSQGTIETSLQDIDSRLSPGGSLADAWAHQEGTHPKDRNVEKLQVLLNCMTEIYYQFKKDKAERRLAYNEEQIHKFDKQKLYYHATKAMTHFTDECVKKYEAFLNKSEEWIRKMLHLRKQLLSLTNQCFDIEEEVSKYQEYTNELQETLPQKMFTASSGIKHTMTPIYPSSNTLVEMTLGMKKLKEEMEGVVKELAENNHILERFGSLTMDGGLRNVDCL
Method in brief: as §1

[2] = HEK293T cells, 20 hours, text bins, read-out: IC50 for inhibition of the in-situ IKKε-mediated phosphorylation of IRF3
[3] = text bins, read-out: IC50 for inhibition of the kinase activity of IKKε
[4] = text bins, read-out: IC50 for inhibition of the kinase activity of TBK1
[5] = HEK293T cells in culture, Table 3, read-out: pIRF3 ELISA IC50

| IC50 [1, 2] [nM] | IC50 (IKKε; [3]) [nM] | IC50 (TBK1; [4]) [nM] | IC50 [1, 5] [nM] | IC50 (IKKε; Table 3, read-out: IKKε IC50) [nM] | IC50 (TBK1; Table 3, read-out: TBK1 IC50) [nM] | Compound |
| --- | --- | --- | --- | --- | --- | --- |
| < 100 | 5 to 50 | < 10 |  |  |  | COc1cc(Nc2nccc(-c3ccc(NC(=O)C(C)C)c(C#N)c3)n2)ccc1OCCCN1CCOCC1 [compound 434, N-{2-cyano-4-[2-({3-methoxy-4-[3-(morpholin-4-yl)propoxy]phenyl}amino)pyrimidin-4-yl]phenyl}-2-methylpropanamide] |
| 100 to 250 | < 5 | < 10 |  |  |  | COc1cc(Nc2nccc(-c3ccc(OC4CCOCC4)c(C#N)c3)n2)ccc1C(=O)N1CC(N(C)C)C1 [compound 377, 5-{2-[(4-{[3-(dimethylamino)azetidin-1-yl]carbonyl}-3-methoxyphenyl)amino]pyrimidin-4-yl}-2-(tetrahydro-2H-pyran-4-yloxy)benzonitrile] |
| 250 to 500 | < 5 | < 10 |  |  |  | COc1cc(Nc2nccc(-c3ccc(OC4CCOCC4)c(C#N)c3)n2)ccc1C(=O)NCCCN(C)C [Example 103, 4-({4-[3-cyano-4-(tetrahydro-2H-pyran-4-yloxy)phenyl]pyrimidin-2-yl}amino)-N-[3-(dimethylamino)propyl]-2-methoxybenzamide] |
| < 100 | < 5 | < 10 |  |  |  | COC1CN(Cc2ccc(Nc3nccc(-c4ccc(OC5CCOCC5)c(C#N)c4)n3)cc2)C1 [compound 487] |
| 250 to 500 | < 5 | < 10 | 276 | 2.4 | 0.4 | CN(C)S(=O)(=O)Cc1cccc(Nc2nccc(-c3ccc(OC4CCOCC4)c(C#N)c3)n2)c1 [compound 601, 1-[3-({4-[3-Cyano-4-(tetrahydro-2H-pyran-4-yloxy)phenyl]pyrimidin-2-yl}amino)phenyl]-N,N-dimethylmethane-sulfonamide] |
| 250 to 500 | < 5 | < 10 | 349 | 0.6 | 0.4 | COc1cc(Nc2nccc(-c3ccc(OC4CCOCC4)c(C#N)c3)n2)ccc1C(=O)NC1CCN(C)CC1 [compound 381, 4-({4-[3-cyano-4-(tetrahydro-2H-pyran-4-yloxy)phenyl]pyrimidin-2-yl}amino)-2-methoxy-N-(1-methylpiperidin-4-yl)benzamide] |
| 100 to 250 | < 5 | < 10 |  |  |  | Cc1ccc(Nc2nccc(-c3ccc(OC4CCOCC4)c(C#N)c3)n2)cc1OCCN1CCN(C(C)C)CC1 [compound 597, 5-{2-[(4-Methyl-3-{2-[4-(propan-2-yl)piperazin-1-yl]ethoxy}phenyl)amino]pyrimidin-4-yl}-2-(tetrahydro-2H-pyran-4-yloxy)benzonitrile] |
| < 100 | < 5 | < 10 | 30.9 | 0.7 | 1.3 | N#Cc1cc(-c2ccnc(Nc3cccc(NC(=O)N4CCOCC4)c3)n2)ccc1OC1CCOCC1 [compound 646, N-[3-({4-[3-Cyano-4-(tetrahydro-2H-pyran-4-yloxy)phenyl]pyrimidin-2-yl}amino)phenyl] morpholine-4-carboxamide] |
| 100 to 250 | < 5 | < 10 |  |  |  | CN(C)CCNS(=O)(=O)c1ccc(Nc2nccc(-c3ccc(OC4CCOCC4)c(C#N)c3)n2)cc1 [compound 334, 4-({4-[3-cyano-4-(tetrahydro-2H-pyran-4-yloxy)phenyl]pyrimidin-2-yl}amino)-N-[2-(dimethylamino)ethyl] benzenesulfonamide] |
| 100 to 250 | 5 to 50 | 10 to 100 |  |  |  | COCCNC(=O)c1ccc(Nc2nccc(-c3ccc(NC(=O)C4CC4)c(C#N)c3)n2)cc1 [compound 537] |
| < 100 | < 5 | < 10 | 56 | 0.4 | 0.7 | N#Cc1cc(-c2ccnc(Nc3cccc(CN4CCC(O)C4)c3)n2)ccc1OC1CCOCC1 (stereo not drawn) [compound 561, 5-[2-({3-[(3-Hydroxypyrrolidin-1-yl)methyl]phenyl}amino)pyrimidin-4-yl]-2-(tetrahydro-2H-pyran-4-yloxy)benzonitrile] |
| < 100 | < 5 | < 10 |  |  |  | CC(C)N1CCN(CCOc2cc(Nc3nccc(-c4ccc(OC5CCOCC5)c(C#N)c4)n3)ccc2F)CC1 [compound 650, 5-{2-[(4-Fluoro-3-{2-[4-(propan-2-yl)piperazin-1-yl]ethoxy}phenyl)amino]pyrimidin-4-yl}-2-(tetrahydro-2H-pyran-4-yloxy)benzonitrile] |
| 250 to 500 | < 5 | 10 to 100 |  |  |  | N#Cc1cc(-c2ccnc(Nc3ccc(N4CCOCC4)cc3)n2)ccc1OCC1CCNCC1 [Example 72, 5-(2-{[4-(morpholin-4-yl)phenyl]amino}pyrimidin-4-yl)-2-(piperidin-4-ylmethoxy) benzonitrile] |
| 100 to 250 | < 5 | < 10 |  |  |  | CC1(COc2ccc(-c3ccnc(Nc4ccc(N5CCN(CCO)CC5)cc4)n3)cc2C#N)COC1 [compound 437, 5-[2-({4-[4-(2-Hydroxyethyl)piperazin-1-yl]phenyl}amino)pyrimidin-4-yl]-2-[(3-methyloxetan-3-yl)methoxy] benzonitrile] |
| < 100 | < 5 | < 10 |  |  |  | COc1cc(Nc2nccc(-c3ccc(OC4CCOCC4)c(C#N)c3)n2)ccc1C(=O)N(C)C1CCN(C)C1 (stereo not drawn) [compound 385, 4-({4-[3-cyano-4-(tetrahydro-2H-pyran-4-yloxy)phenyl]pyrimidin-2-yl}amino)-2-methoxy-N-methyl-N-(1-methylpyrrolidin-3-yl)benzamide] |
| 100 to 250 | < 5 | < 10 |  |  |  | CCOC(=O)C(C)NCc1ccc(Nc2nccc(-c3ccc(OC4CCOCC4)c(C#N)c3)n2)cc1 (stereo not drawn) [compound 489, ethyl N-[4-({4-[3-cyano-4-(tetrahydro-2H-pyran-4-yloxy)phenyl]pyrimidin-2-yl}amino)benzyl] alaninate] |
| 100 to 250 | < 5 | < 10 |  |  |  | COc1cc(Nc2nccc(-c3ccc(NC(=O)C4CC4)c(C#N)c3)n2)ccc1C(=O)N1CC(OC)C1 [compound 603, N-{2-Cyano-4-[2-({3-methoxy-4-[(3-methoxyazetidin-1-yl)carbonyl]phenyl}amino)pyrimidin-4-yl]phenyl} cyclopropane-carboxamide] |
| 100 to 250 | 5 to 50 | < 10 |  |  |  | N#Cc1cc(-c2ccnc(Nc3ccc(N4CCOCC4)cc3)n2)ccc1OCC1CCCN(C(=O)CO)C1 (stereo not drawn) [Example 219, 2-{[1-(hydroxyacetyl)piperidin-3-yl]methoxy}-5-(2-{[4-(morpholin-4-yl)phenyl]amino}pyrimidin-4-yl)benzonitrile] |

| Compound | IC50 [1, 2] [nM] | IC50 (IKKε; [3]) [nM] | IC50 (TBK1; [4]) [nM] | IC50 [1, 5] [nM] | IC50 (IKKε; Table 3, read-out: IKKε IC50) [nM] | IC50 (TBK1; Table 3, read-out: TBK1 IC50) [nM] |
| --- | --- | --- | --- | --- | --- | --- |
| CC(C)C(=O)Nc1ccc(-c2ccnc(Nc3ccc(CC(=O)N4CCN(C(C)C)CC4)cc3)n2)cc1C#N [compound 418, N-(2-cyano-4-{2-[(4-{2-oxo-2-[4-(propan-2-yl)piperazin-1-yl]ethyl}phenyl)amino]pyrimidin-4-yl}phenyl)-2-methylpropanamide] | < 100 | 5 to 50 | < 10 |  |  |  |
